The values below come from patent US20240173339A1, “CANNABINOID FORMULATION FOR MANAGEMENT OF DEPRESSION, ANXIETY AND PTSD, AND CANNABINOID FORMULATION AS A SLEEP AID” (Zyus Life Sciences Inc., priority 2021, published 2024).

Several values for one entry are separate records, joined by “and”; a condition that tells them apart may be missing. Equal entries are not always repeated. Where two headings read alike, the source gives them in different places.

For series [1], the system named is rodents. The note with it: in vivo; cited from earlier work.
Series [2] has as its system rodents. The settings on record: cited from earlier work.
Series [3] has as its system CRS mice. Kind of series: Forced Swim Test (FST) in CRS mice. In kind it is in vivo, BALB/c mice. The note with it: CBC 20 mg/kg; for anti-depressive effect (reduction of immobility time and greater movement distance in FST): CBD 10 mg/kg, CBD+CBC 10 and 20 mg/kg. As to the method:
(§1) D0-D14: Development of Depression Model by Chronic Restraint Stimulation (CRS) 1 hour per day.
(§2) D15: Treatment of Control and CRS mice (i.p injection of Cannabinoids or Vehicle).
D19: Forced swim test (FST).
(§3) Mouse Species. Adult male BALB/c mice were purchased from Charles River Laboratories.
(§4) Distress Model. Adult male BALB/c mice weighing 20-30 g were used for these experiments. Total 160 animals=10 animals/group×8 treatment groups×2 replicates. The mice groups were as following: • 1. Stress Group: Chronic Restraint Stimulation (CRS): N=80 mice • 2. Control Group: No distress […] CRS: N=80 mice
(§5) Group 2—Treatment with CBD (10 mg/kg)
(§6) Group 3—Treatment with CBC (20 mg/kg)
(§7) Group 4—Co-Treatment CBD (10 mg/kg)+CBC (20 mg/kg)
(§8) • Forced Swim Test (FST) • Elevated Plus Maze (EPM) • Open-Field Test (OFT) • Tail Suspension Test (TST)

The conditions of series [4]: in vivo; cited from earlier work.
For series [5], the system named is CRS mice. Kind of series: Elevated Plus Maze (EPM) in chronic restraint stress mouse model. In kind it is in vivo, BALB/c mice. The note with it: i.p., CBD 10 mg/kg, CBC 20 mg/kg, or both. The procedure:
as §1, §2
D16: Elevated plus maze test (EPM) (Replicate 1).
D17: Elevated plus maze test (EPM) (Replicate 2).
as §3, §4, §5, §6, §7, §8

In a further series the target is CB1 receptors (Homo sapiens, UniProt P21554). The settings on record: cited from earlier work.
Another series concerns the target CB2 receptors (Homo sapiens, UniProt P34972). The note with it: read-out: affinity (Ki) for CB2 receptors; cited from earlier work.
The test system of a further series is rats. The settings on record: cited from earlier work.
The conditions of series [6]: cited from earlier work.

CB1 receptors, sequence (P21554 whole entry): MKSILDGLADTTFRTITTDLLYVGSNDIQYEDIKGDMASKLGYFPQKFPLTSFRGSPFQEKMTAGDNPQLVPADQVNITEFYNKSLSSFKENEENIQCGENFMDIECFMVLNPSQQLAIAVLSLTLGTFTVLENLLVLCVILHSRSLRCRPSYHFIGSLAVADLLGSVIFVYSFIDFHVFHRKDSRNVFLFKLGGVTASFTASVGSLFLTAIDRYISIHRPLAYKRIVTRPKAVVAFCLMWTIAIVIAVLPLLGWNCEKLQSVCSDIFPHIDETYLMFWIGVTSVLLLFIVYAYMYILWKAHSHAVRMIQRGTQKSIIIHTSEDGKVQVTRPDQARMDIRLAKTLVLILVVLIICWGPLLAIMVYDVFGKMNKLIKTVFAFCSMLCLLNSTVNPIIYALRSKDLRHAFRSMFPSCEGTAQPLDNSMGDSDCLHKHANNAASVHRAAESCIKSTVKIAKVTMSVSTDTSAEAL
CB2 receptors, sequence (P34972 whole entry): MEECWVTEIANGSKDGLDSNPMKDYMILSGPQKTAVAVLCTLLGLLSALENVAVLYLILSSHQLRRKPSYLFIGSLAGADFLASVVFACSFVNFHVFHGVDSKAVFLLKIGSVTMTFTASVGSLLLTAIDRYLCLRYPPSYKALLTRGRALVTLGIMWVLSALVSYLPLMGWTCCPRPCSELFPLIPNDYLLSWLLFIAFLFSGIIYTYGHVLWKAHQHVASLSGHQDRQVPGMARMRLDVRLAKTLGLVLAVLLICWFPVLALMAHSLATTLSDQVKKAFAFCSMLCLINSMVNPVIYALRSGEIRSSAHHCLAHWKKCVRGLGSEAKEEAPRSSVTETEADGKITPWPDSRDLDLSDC

In the case of `CCCCCc1cc(O)c2c(c1)OC(C)(CCC=C(C)C)C=C2` (stereo not drawn) [CBC, cannabichromene], the “dose with significant antidepressant effect on FST” value in the series on rodents [1] is 20 mg/kg. In addition, the “dose with significant antidepressant effect on TST” value in the series with rodents [2] (in vivo) is 40 mg/kg and 80 mg/kg. Also, the “FST immobility compared to Vehicle” value with CRS mice [3] (CBD+CBC 10+20 mg/kg) is given as “marked reduction of immobility”. Further, the “anti-depressive effect (reduction of immobility time and greater movement distance in FST)” value in the series on CRS mice [3] is reported as “significant anti-depressive effect”. The “dose causing decreased locomotor activity” value in series [4] was 80 mg/kg and 100 mg/kg. Also, the “mobility in Elevated Plus Maze (EPM)” value with CRS mice [5] is recorded as “significantly higher mobility”. For the same compound, on CB1 receptors, the “concentration at which it binds to CB1 receptors” value is reported as “higher than 1 micromolar”. Besides, the inhibition constant Ki on CB2 receptors was around 100 nM.
For the compound `C=C(C)[C@@H]1CCC(C)=C[C@H]1c1c(O)cc(CCCCC)cc1O` [CBD, cannabidiol, reference compound], the “dose showing anti-inflammatory and immunomodulatory effects” value in the series on rats was 5 to 20 mg/kg. The “change on TST” value in the series with rodents [2] (at any dose) is on record as “did not cause a significant change”. For the same compound, the “anti-depressive effect (reduction of immobility time and greater movement distance in FST)” value with CRS mice [3] is on record as “significant anti-depressive effect”. In addition, in [4], the “dose causing decreased locomotor activity” value is given as 200 mg/kg. Besides, the “mobility in Elevated Plus Maze (EPM)” value in the series on CRS mice [5] was “significantly higher mobility”. Also, the anti-anxiety effect result in series [6] (high dose (100 mg/kg)) is on record as “failed”; in series [6] (low dose (10 mg/kg)), “effective”.

Usually Ki stands for the equilibrium dissociation constant of an inhibitor or competing ligand from its target.
